In brackets after ≈: the same amount, converted by molar mass.
What was measured:
Format in all cases: functional
Aspergillus flavus = assay: Minimal inhibitory effect against the Aspergillus flavus (C1150).
Nakaseomyces glabratus = assay: Minimal inhibitory effect against the Candida glabrata (2375E).
Candida parapsilosis = assay: Minimal inhibitory effect against the Candida parapsilosis (2372E).; details: Lodderomyces parapsilosis
Candida tropicalis = assay: Minimal inhibitory effect against the Candida tropicalis (2808E).
Candida albicans [1] = assay: Minimal inhibitory effect against the Candida albicans (2005E).
Candida albicans [2] = assay: Minimal inhibitory effect against the Candida albicans (4711E).
Kluyveromyces marxianus = assay: Minimal inhibitory effect against the Candida pseudotropicalis (2371E).
Cryptococcus neoformans = assay: Minimal inhibitory effect against the Cryptococcus neoformans (2867E).

## CC(C)C1=CC2CC3(C=O)[C@@H]4CC[C@@H](C)[C@H]4CC2(CO[C@H]2C[C@@H]4OC(C)(C)O[C@@H]4[C@@H](C)O2)C13C(=O)O (stereo partly specified)
Aspergillus flavus
  MIC: > 125 µg/mL
Nakaseomyces glabratus
  MIC: 31 µg/mL (≈ 61.7 µM)
Candida parapsilosis
  MIC: > 125 µg/mL
Candida tropicalis
  MIC: 0.12 µg/mL (≈ 0.239 µM)
Candida albicans [1]
  MIC: < 0.001 µg/mL
Candida albicans [2]
  MIC: 0.004 µg/mL (≈ 0.00796 µM)
Kluyveromyces marxianus
  MIC: 0.004 µg/mL (≈ 0.00796 µM)
Cryptococcus neoformans
  MIC: 0.12 µg/mL (≈ 0.239 µM)

## CC(C)C1=CC2CC3(C=O)[C@@H]4CC[C@@H](C)[C@H]4CC2(CO[C@H]2C[C@H]4[C@H](OCC4(C)C)[C@@H](C)O2)C13C(=O)O (stereo partly specified)
Aspergillus flavus
  MIC: > 125 µg/mL
Nakaseomyces glabratus
  MIC: 8 µg/mL (≈ 16 µM)
Candida parapsilosis
  MIC: > 125 µg/mL
Candida tropicalis
  MIC: 0.06 µg/mL (≈ 0.12 µM)
Candida albicans [1]
  MIC: < 0.001 µg/mL
Candida albicans [2]
  MIC: < 0.001 µg/mL
Kluyveromyces marxianus
  MIC: < 0.001 µg/mL
Cryptococcus neoformans
  MIC: 4 µg/mL (≈ 7.99 µM)

## CC(C)C1=CC2CC3(C=O)[C@@H]4CC[C@@H](C)[C@H]4CC2(CO[C@H]2C[C@H]4[C@H](OC[C@@H]4C(C)C)[C@@H](C)O2)C13C(=O)O (stereo partly specified)
Aspergillus flavus
  MIC: > 125 µg/mL
Nakaseomyces glabratus
  MIC: 2 µg/mL (≈ 3.89 µM)
Candida parapsilosis
  MIC: 16 µg/mL (≈ 31.1 µM)
Candida tropicalis
  MIC: 0.004 µg/mL (≈ 0.00777 µM)
Candida albicans [1]
  MIC: < 0.001 µg/mL
Candida albicans [2]
  MIC: < 0.001 µg/mL
Kluyveromyces marxianus
  MIC: < 0.001 µg/mL
Cryptococcus neoformans
  MIC: 0.25 µg/mL (≈ 0.486 µM)

## CC(C)C1=CC2CC3(C=O)[C@@H]4CC[C@@H](C)[C@H]4CC2(CO[C@H]2C[C@H]4[C@H](OC[C@H]4C)[C@@H](C)O2)C13C(=O)O (stereo partly specified)
Aspergillus flavus
  MIC: > 125 µg/mL
Nakaseomyces glabratus
  MIC: 4 µg/mL (≈ 8.22 µM)
Candida parapsilosis
  MIC: > 125 µg/mL
Candida tropicalis
  MIC: 0.004 µg/mL (≈ 0.00822 µM)
Candida albicans [1]
  MIC: 0.001 µg/mL (≈ 0.00205 µM)
Candida albicans [2]
  MIC: < 0.001 µg/mL
Kluyveromyces marxianus
  MIC: 0.001 µg/mL (≈ 0.00205 µM)
Cryptococcus neoformans
  MIC: 4 µg/mL (≈ 8.22 µM)

## CC[C@H]1CO[C@H]2C1[C@H](O)[C@H](OCC13C[C@@H]4[C@H](C)CC[C@H]4C4(C=O)CC1C=C(C(C)C)C34C(=O)O)O[C@@H]2C (single isomer, unassigned)
Aspergillus flavus
  MIC: > 125 µg/mL
Nakaseomyces glabratus
  MIC: 8 µg/mL (≈ 15.5 µM)
Candida parapsilosis
  MIC: 125 µg/mL (≈ 242 µM)
Candida tropicalis
  MIC: 0.5 µg/mL (≈ 0.968 µM)
Candida albicans [1]
  MIC: 0.03 µg/mL (≈ 0.0581 µM)
Candida albicans [2]
  MIC: 0.12 µg/mL (≈ 0.232 µM)
Kluyveromyces marxianus
  MIC: 0.06 µg/mL (≈ 0.116 µM)
Cryptococcus neoformans
  MIC: < 0.25 µg/mL

## CC(C)C1=CC2CC3(C=O)[C@@H]4CC[C@@H](C)[C@H]4CC2(CO[C@H]2C[C@@H]4OC[C@@H](C)[C@@H]4[C@@H](C)O2)C13C(=O)O (stereo partly specified)
Aspergillus flavus
  MIC: > 125 µg/mL
Nakaseomyces glabratus
  MIC: 8 µg/mL (≈ 16.4 µM)
Candida parapsilosis
  MIC: > 125 µg/mL
Candida tropicalis
  MIC: 0.008 µg/mL (≈ 0.0164 µM)
Candida albicans [1]
  MIC: < 0.001 µg/mL
Candida albicans [2]
  MIC: < 0.001 µg/mL
Kluyveromyces marxianus
  MIC: < 0.001 µg/mL
Cryptococcus neoformans
  MIC: 1 µg/mL (≈ 2.05 µM)

## CC[C@@H]1CO[C@H]2C1[C@H](O)[C@H](OCC13C[C@@H]4[C@H](C)CC[C@H]4C4(C=O)CC1C=C(C(C)C)C34C(=O)O)O[C@@H]2C (single isomer, unassigned)
Aspergillus flavus
  MIC: > 125 µg/mL
Nakaseomyces glabratus
  MIC: 16 µg/mL (≈ 31 µM)
Candida parapsilosis
  MIC: 125 µg/mL (≈ 242 µM)
Candida tropicalis
  MIC: 0.25 µg/mL (≈ 0.484 µM)
Candida albicans [1]
  MIC: 0.015 µg/mL (≈ 0.029 µM)
Candida albicans [2]
  MIC: 0.12 µg/mL (≈ 0.232 µM)
Kluyveromyces marxianus
  MIC: 0.06 µg/mL (≈ 0.116 µM)
Cryptococcus neoformans
  MIC: < 0.25 µg/mL

## CC[C@@H]1CO[C@H]2[C@@H]1C[C@H](OCC13C[C@@H]4[C@H](C)CC[C@H]4C4(C=O)CC1C=C(C(C)C)C34C(=O)O)O[C@@H]2C (stereo partly specified)
Aspergillus flavus
  MIC: > 125 µg/mL
Nakaseomyces glabratus
  MIC: 4 µg/mL (≈ 7.99 µM)
Candida parapsilosis
  MIC: > 125 µg/mL
Candida tropicalis
  MIC: < 0.001 µg/mL
Candida albicans [1]
  MIC: < 0.001 µg/mL
Candida albicans [2]
  MIC: < 0.001 µg/mL
Kluyveromyces marxianus
  MIC: < 0.001 µg/mL
Cryptococcus neoformans
  MIC: 1 µg/mL (≈ 2 µM)

## CC(C)C1=CC2CC3(C=O)[C@@H]4CC[C@@H](C)[C@H]4CC2(CO[C@@H]2O[C@H](C)[C@H]4OC[C@H](C)C4[C@@H]2O)C13C(=O)O (single isomer, unassigned)
Aspergillus flavus
  MIC: > 125 µg/mL
Nakaseomyces glabratus
  MIC: 31 µg/mL (≈ 61.7 µM)
Candida parapsilosis
  MIC: 125 µg/mL (≈ 249 µM)
Candida tropicalis
  MIC: 2 µg/mL (≈ 3.98 µM)
Candida albicans [1]
  MIC: 0.5 µg/mL (≈ 0.995 µM)
Candida albicans [2]
  MIC: 1 µg/mL (≈ 1.99 µM)
Kluyveromyces marxianus
  MIC: 1 µg/mL (≈ 1.99 µM)
Cryptococcus neoformans
  MIC: 1 µg/mL (≈ 1.99 µM)

## CC(C)C1=CC2CC3(C=O)[C@@H]4CC[C@@H](C)[C@H]4CC2(CO[C@@H]2O[C@H](C)[C@H]4OC[C@@H](C)C4[C@@H]2O)C13C(=O)O (single isomer, unassigned)
Aspergillus flavus
  MIC: > 125 µg/mL
Nakaseomyces glabratus
  MIC: 62 µg/mL (≈ 123 µM)
Candida parapsilosis
  MIC: 125 µg/mL (≈ 249 µM)
Candida tropicalis
  MIC: 0.5 µg/mL (≈ 0.995 µM)
Candida albicans [1]
  MIC: 0.008 µg/mL (≈ 0.0159 µM)
Candida albicans [2]
  MIC: 0.25 µg/mL (≈ 0.497 µM)
Kluyveromyces marxianus
  MIC: 0.25 µg/mL (≈ 0.497 µM)
Cryptococcus neoformans
  MIC: 31 µg/mL (≈ 61.7 µM)

## CC(C)C1=CC2CC3(C=O)[C@@H]4CC[C@@H](C)[C@H]4CC2(CO[C@H]2C[C@H]4[C@H](OC[C@H]4C(C)C)[C@@H](C)O2)C13C(=O)O (stereo partly specified)
Aspergillus flavus
  MIC: > 125 µg/mL
Nakaseomyces glabratus
  MIC: 62 µg/mL (≈ 120 µM)
Candida parapsilosis
  MIC: > 125 µg/mL
Candida tropicalis
  MIC: 2 µg/mL (≈ 3.89 µM)
Candida albicans [1]
  MIC: < 0.001 µg/mL
Candida albicans [2]
  MIC: < 0.001 µg/mL
Kluyveromyces marxianus
  MIC: < 0.001 µg/mL
Cryptococcus neoformans
  MIC: 4 µg/mL (≈ 7.77 µM)

## OC(Cn1cncn1)(Cn1cncn1)c1ccc(F)cc1F [FLUCONAZOLE]
Nakaseomyces glabratus
  MIC: 4 µg/mL (≈ 13.1 µM)
Candida parapsilosis
  MIC: 0.5 µg/mL (≈ 1.63 µM)
Candida tropicalis
  MIC: 2 µg/mL (≈ 6.53 µM)
Candida albicans [2]
  MIC: 0.12 µg/mL (≈ 0.392 µM)

## CC(C)C1=CC2CC3(C=O)[C@@H]4CC[C@@H](C)[C@H]4CC2(CO[C@H]2C[C@@H]4OC[C@H](C)[C@@H]4[C@@H](C)O2)C13C(=O)O (stereo partly specified)
Aspergillus flavus
  MIC: > 125 µg/mL
Nakaseomyces glabratus
  MIC: 16 µg/mL (≈ 32.9 µM)
Candida parapsilosis
  MIC: > 125 µg/mL
Candida tropicalis
  MIC: 0.03 µg/mL (≈ 0.0616 µM)
Candida albicans [1]
  MIC: 0.001 µg/mL (≈ 0.00205 µM)
Candida albicans [2]
  MIC: 0.004 µg/mL (≈ 0.00822 µM)
Kluyveromyces marxianus
  MIC: < 0.001 µg/mL
Cryptococcus neoformans
  MIC: 0.5 µg/mL (≈ 1.03 µM)

## CC(C)C1=CC2CC3(C=O)[C@@H]4CC[C@@H](C)[C@H]4CC2(CO[C@H]2C[C@H]4[C@H](OC[C@@H]4C)[C@@H](C)O2)C13C(=O)O (stereo partly specified)
Aspergillus flavus
  MIC: 62 µg/mL (≈ 127 µM)
Nakaseomyces glabratus
  MIC: 0.5 µg/mL (≈ 1.03 µM)
Candida parapsilosis
  MIC: 2 µg/mL (≈ 4.11 µM)
Candida tropicalis
  MIC: 0.008 µg/mL (≈ 0.0164 µM)
Candida albicans [1]
  MIC: < 0.001 µg/mL
Candida albicans [2]
  MIC: < 0.001 µg/mL
Kluyveromyces marxianus
  MIC: 0.004 µg/mL (≈ 0.00822 µM)
Cryptococcus neoformans
  MIC: 0.25 µg/mL (≈ 0.514 µM)

## CC[C@H]1CO[C@H]2[C@@H]1C[C@H](OCC13C[C@@H]4[C@H](C)CC[C@H]4C4(C=O)CC1C=C(C(C)C)C34C(=O)O)O[C@@H]2C (stereo partly specified)
Aspergillus flavus
  MIC: 62 µg/mL (≈ 124 µM)
Nakaseomyces glabratus
  MIC: 0.5 µg/mL (≈ 0.999 µM)
Candida parapsilosis
  MIC: 4 µg/mL (≈ 7.99 µM)
Candida tropicalis
  MIC: < 0.001 µg/mL
Candida albicans [1]
  MIC: < 0.001 µg/mL
Candida albicans [2]
  MIC: < 0.001 µg/mL
Kluyveromyces marxianus
  MIC: < 0.001 µg/mL
Cryptococcus neoformans
  MIC: < 0.25 µg/mL
